Data published in patent US7678774B2 (priority 2003, dated 2010).

Columns and labels:
coronavirus (SARS) = settings: cited from earlier work
[1] = test system: human coronavirus strain OC-43; format: cell-based
[2] = test system: human coronavirus strain OC-43; format: cell-based; remark: listed apart in the source
[3] = test system: Mouse Hepatitis Virus Type-3 (MHV-3); settings: in vivo; cited from earlier work
[4] = test system: Mouse Hepatitis Virus Type-3 (MHV-3); settings: in vivo; cited from earlier work; remark: listed apart in the source
[5] = test system: Four human tumor cell lines; settings: cited from earlier work

| Molecule | Effect on the SARS coronavirus (coronavirus (SARS)) | Inhibition of virus in viral cytopathic inhibition assay [1] | Inhibition of virus in neutral red assay [2] | Survival relative to untreated mice [3] | Virus clearance and development of chronic hepatitis [4] | Antiproliferative interaction with interferons [5] |
| --- | --- | --- | --- | --- | --- | --- |
| NC(=O)c1ncn([C@@H]2O[C@H](CO)[C@@H](O)[C@H]2O)n1 [ribavirin] | no effect |  |  |  |  |  |
| rIn.r(C12U)n |  | inhibit | inhibit | survived up to four times longer | cleared the virus quickly and did not develop chronic hepatitis | worked synergistically with all interferons in all cell lines studied |
